Assay results taken from US20230122540A1, “SYSTEMS AND METHODS TO TRACK THE EVOLUTION OF SINGLE CELLS” (Genentech, Inc., priority 2020, published 2023).

What was measured:
Format in all cases: cell-based, human
[1] = tested on: NCI-H1975 cells; test: Clonogenic / CellTiter-Glo assay with allosteric degraders; settings: compared to osimertinib
Experimental: Clonogenic assay: Cells were seeded at desired densities in two to three replicates in 6-well plates and allowed to attach overnight. The following day cells were treated with the indicated compounds. Media containing the appropriate compounds was replenished every 48-72 hours. At the end of the assay, the cells were washed once with PBS, fixed and stained with crystal violet solution (Sigma Aldrich, HT90132) for 20 minutes, washed with water, and allowed to dry before scanning. For experiments shown in FIG. 18E erlotinib concentration were determined to match the cell viability effect to 1 μM GNE-069 in each cell line, so that 1 μM erlotinib was applied to PC-9 and HCC2935, and 100 nM erlotinib was applied to HCC4006 and HCC827. […]
Cell viability and cell death quantification: For experiments shown in FIGS. 24C, 27D, the indicated cells were seeded at desired densities in replicates in 24-well plates and allowed to attach overnight. […] At each media change, cell viabilities were quantified using CellTiter-Glo Luminescent Cell Viability Assay (Promega, G7572). […] Induction of cell death was quantified 24 h post-treatment using Caspase-Glo 3/7 Assay System (Promega, G8093) and cell survival were measured 72 h post-treatment using CellTiter-Glo Luminescent Cell Viability Assay (Promega, G7572). […]

[2] = tested on: PC9 cells; test: Caspase-Glo 3/7 cell death assay, EGFRi+CCT020312; settings: Caspase-Glo 3/7, 24 h post-treatment
Experimental: Cell viability and cell death quantification: For experiments shown in FIGS. 24C, 27D, the indicated cells were seeded at desired densities in replicates in 24-well plates and allowed to attach overnight. The following day cells were treated with the indicated compounds. Media containing the appropriate compounds was replenished every 48 hours. At each media change, cell viabilities were quantified using CellTiter-Glo Luminescent Cell Viability Assay (Promega, G7572). For experiments shown in FIG. 191 and FIG. 29D, PC9 cells were seeded in replicates in 96-well plates and allowed to attach overnight. The following day cells were treated with the indicated compounds or compound combinations at the indicated concentrations. Induction of cell death was quantified 24 h post-treatment using Caspase-Glo 3/7 Assay System (Promega, G8093) and cell survival were measured 72 h post-treatment using CellTiter-Glo Luminescent Cell Viability Assay (Promega, G7572). CCT020312 was obtained from EMD Millipore (324879).

[3] = tested on: ATF4, CHOP, GADD34; test: qRT-PCR of pro-death genes downstream of ER stress; settings: PC9 and NCI-H1975 cells, day three
Experimental: RNA extraction and qRT-PCR: RNA was extracted using Qiagen RNeasy Plus kit following manufacturer's instruction. RNA was reverse transcribed using High-Capacity cDNA Reverse Transcription Kit (Thermo Fisher Scientific Cat. No. 4368814). qPCRs were performed using TaqMan™ Fast Advanced Master Mix (Thermo Fisher Scientific Cat. No. 4444557) on ABI QuantStudio 7 Flex Real-Time PCR Systems. HPRT1 was used as the internal control to quantify relative gene expression levels. Taqman probes were obtained from Thermo Fisher Scientific (Cat. No. 431182, 4448490). These probes were used in the study: ATF4 Hs00909569_g1, DDIT3/CHOP Hs00358796_g1, PPP1R15A/GADD34 Hs00169585_m1, SLC7A5 Hs01001183_m1, ETV4 Hs00385910_m1, SPRY4 Hs00540086_m1, DUSP6 Hs04329643_s1, HPRT1 Hs02800695_m1.

In the case of O=C(Nc1nccs1)C(c1cc(F)ccc1O)N1Cc2ccccc2C1=O (stereo not drawn) [EAI-045], the “single agent anti-growth activity” value [1] is reported as “very modest single agent activity”.

CCN(CC)CCC(=O)N1N=C(c2c(-c3ccccc3)c3cc(Br)ccc3[nH]c2=O)CC1c1ccc(Br)cc1 (stereo not drawn) [CCT020312] was tested, and the “cell death induction in combination with erlotinib or osimertinib” value [2] was “enhanced cell death induction” and the “induction of ISR genes in combination with erlotinib or osimertinib” value [3] was “further boosted induction of ISR genes by erlotinib and osimertinib”.
